According to ChEMBL document CHEMBL5696441 (Nat Chem Biol, 2011):

Assays:
[1] = target: Protein kinase C alpha type (Homo sapiens) (UniProt P17252); assay: Inhibition of human PKCalpha assessed as residual activity at 1 uM using 3xChocktide-PKC(19-31) as substrate in presence of 33P-ATP by ProQinase assay relative to control
[2] = target: Proto-oncogene tyrosine-protein kinase Src (Homo sapiens) (UniProt P12931); assay: Inhibition of SRC (unknown origin) assessed as remaining activity at 1 uM by Kinome scan method relative to control
[3] = test system: Mast/stem cell growth factor receptor Kit (Homo sapiens), P10721 [V559D,T670I]; assay: Inhibition of KIT V559D/T670I mutant (unknown origin) assessed as remaining activity at 1 uM by Kinome scan method relative to control
[4] = target: Myosin-IIIa (Homo sapiens) (UniProt Q8NEV4); assay: Inhibition of MYO3A (unknown origin) assessed as remaining activity at 1 uM by Kinome scan method relative to control
[5] = target: LIM domain kinase 1 (Homo sapiens) (UniProt P53667); assay: Inhibition of human LIMK1 assessed as residual activity at 1 uM using CFL2 as substrate in presence of 33P-ATP by ProQinase assay relative to control
[6] = target: Calcium/calmodulin-dependent protein kinase type II subunit delta (Homo sapiens) (UniProt Q13557); assay: Inhibition of human CAMK2D assessed as residual activity at 1 uM using RBER-CHKtide as substrate in presence of 33P-ATP by ProQinase assay relative to control
Chain of Calcium/calmodulin-dependent protein kinase type II subunit delta (Homo sapiens) (Q13557 whole entry): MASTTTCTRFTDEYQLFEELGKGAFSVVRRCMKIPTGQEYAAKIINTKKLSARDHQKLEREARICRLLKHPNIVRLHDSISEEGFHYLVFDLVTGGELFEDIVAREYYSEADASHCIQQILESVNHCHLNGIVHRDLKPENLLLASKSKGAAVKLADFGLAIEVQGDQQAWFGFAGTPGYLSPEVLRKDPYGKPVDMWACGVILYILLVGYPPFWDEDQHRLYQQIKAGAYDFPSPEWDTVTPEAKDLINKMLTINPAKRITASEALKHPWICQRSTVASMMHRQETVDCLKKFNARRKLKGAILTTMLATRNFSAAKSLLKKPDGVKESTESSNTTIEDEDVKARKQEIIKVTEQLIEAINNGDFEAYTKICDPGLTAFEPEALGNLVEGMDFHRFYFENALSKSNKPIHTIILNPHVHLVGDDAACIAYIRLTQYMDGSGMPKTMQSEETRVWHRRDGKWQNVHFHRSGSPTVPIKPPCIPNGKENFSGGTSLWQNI

[7] = target: STE20-like serine/threonine-protein kinase (Homo sapiens) (UniProt Q9H2G2); assay: Inhibition of human SLK assessed as residual activity at 1 uM using RB-S6P as substrate in presence of 33P-ATP by ProQinase assay relative to control
Chain of STE20-like serine/threonine-protein kinase (Homo sapiens) (Q9H2G2 whole entry, looked up): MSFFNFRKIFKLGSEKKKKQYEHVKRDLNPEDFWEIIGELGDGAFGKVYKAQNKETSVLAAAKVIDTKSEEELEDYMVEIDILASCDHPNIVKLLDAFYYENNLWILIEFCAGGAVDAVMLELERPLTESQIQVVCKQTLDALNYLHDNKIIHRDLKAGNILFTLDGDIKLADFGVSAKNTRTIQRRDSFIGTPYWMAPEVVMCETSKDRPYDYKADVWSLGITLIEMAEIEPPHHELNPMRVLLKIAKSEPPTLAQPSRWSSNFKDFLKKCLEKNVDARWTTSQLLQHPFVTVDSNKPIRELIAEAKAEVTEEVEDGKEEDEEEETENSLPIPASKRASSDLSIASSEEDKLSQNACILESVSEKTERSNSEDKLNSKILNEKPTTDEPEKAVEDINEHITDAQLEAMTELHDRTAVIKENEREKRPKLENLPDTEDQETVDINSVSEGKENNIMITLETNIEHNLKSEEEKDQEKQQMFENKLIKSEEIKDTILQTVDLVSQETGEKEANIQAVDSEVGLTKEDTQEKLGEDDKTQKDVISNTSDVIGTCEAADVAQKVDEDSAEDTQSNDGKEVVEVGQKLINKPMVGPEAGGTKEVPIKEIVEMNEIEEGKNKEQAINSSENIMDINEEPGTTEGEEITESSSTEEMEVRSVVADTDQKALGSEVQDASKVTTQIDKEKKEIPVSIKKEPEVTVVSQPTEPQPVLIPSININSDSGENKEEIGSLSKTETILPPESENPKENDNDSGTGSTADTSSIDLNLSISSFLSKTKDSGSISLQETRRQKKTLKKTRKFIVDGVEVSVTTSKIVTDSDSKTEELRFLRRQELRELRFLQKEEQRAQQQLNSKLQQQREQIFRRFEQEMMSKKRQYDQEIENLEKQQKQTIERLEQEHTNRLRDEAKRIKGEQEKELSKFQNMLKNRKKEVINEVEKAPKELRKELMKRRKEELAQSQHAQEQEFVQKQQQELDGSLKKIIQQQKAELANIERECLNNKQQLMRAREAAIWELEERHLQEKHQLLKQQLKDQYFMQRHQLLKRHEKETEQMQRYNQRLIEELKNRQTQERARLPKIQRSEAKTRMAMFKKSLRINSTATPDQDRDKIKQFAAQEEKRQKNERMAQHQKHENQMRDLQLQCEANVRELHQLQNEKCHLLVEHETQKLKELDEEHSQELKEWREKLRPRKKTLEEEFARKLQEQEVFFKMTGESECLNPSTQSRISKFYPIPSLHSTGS

[8] = target: T1, Ephrin type-B receptor 4 (Homo sapiens) (UniProt P54760); assay: Inhibition of human EPHB4 assessed as residual activity at 1 uM using polyEY as substrate in presence of 33P-ATP by ProQinase assay relative to control
T1 sequence (whole entry): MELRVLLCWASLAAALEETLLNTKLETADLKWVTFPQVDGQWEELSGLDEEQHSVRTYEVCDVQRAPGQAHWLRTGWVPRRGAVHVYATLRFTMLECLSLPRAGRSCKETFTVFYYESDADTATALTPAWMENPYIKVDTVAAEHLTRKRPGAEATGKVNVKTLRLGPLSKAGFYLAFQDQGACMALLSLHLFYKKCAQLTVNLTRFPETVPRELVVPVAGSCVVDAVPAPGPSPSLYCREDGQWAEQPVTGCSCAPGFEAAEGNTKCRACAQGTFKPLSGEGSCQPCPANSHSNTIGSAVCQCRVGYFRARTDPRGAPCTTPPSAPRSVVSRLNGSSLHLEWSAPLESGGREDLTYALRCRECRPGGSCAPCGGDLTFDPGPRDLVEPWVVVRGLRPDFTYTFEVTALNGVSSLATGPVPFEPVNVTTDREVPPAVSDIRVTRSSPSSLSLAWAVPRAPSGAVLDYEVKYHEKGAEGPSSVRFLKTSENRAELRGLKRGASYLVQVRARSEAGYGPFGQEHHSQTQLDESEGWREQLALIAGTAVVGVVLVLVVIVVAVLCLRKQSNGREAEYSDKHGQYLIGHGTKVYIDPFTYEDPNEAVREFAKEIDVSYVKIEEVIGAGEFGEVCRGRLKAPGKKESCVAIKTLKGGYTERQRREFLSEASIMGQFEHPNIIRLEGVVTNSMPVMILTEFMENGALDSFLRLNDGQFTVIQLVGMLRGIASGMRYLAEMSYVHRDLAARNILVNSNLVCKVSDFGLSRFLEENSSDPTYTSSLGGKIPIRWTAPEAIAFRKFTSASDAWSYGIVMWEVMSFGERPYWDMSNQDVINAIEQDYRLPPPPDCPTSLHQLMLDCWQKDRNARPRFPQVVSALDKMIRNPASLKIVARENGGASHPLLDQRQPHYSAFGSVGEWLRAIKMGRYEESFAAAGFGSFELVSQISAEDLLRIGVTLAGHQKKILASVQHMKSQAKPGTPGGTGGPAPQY

[9] = target: Proto-oncogene tyrosine-protein kinase receptor Ret (Homo sapiens) (UniProt P07949); assay: Inhibition of RET (unknown origin) assessed as remaining activity at 1 uM by Kinome scan method relative to control
[10] = target: NUAK family SNF1-like kinase 1 (Homo sapiens) (UniProt O60285); assay: Inhibition of human ARK5 assessed as residual activity at 1 uM using RBER-CHKtide as substrate in presence of 33P-ATP by ProQinase assay relative to control
[11] = test system: Hepatocyte growth factor receptor (Homo sapiens), P08581 [Y1230D]; assay: Inhibition of human MET Y1230D mutant assessed as residual activity at 1 uM using poly(Ala,Glu,Lys,Tyr)6:2:5:1 as substrate in presence of 33P-ATP by ProQinase assay relative to control
[12] = target: Mitogen-activated protein kinase 13 (Homo sapiens) (UniProt O15264); assay: Inhibition of P38delta (unknown origin) assessed as remaining activity at 1 uM by Kinome scan method relative to control
Chain of Mitogen-activated protein kinase 13 (Homo sapiens) (O15264 whole entry): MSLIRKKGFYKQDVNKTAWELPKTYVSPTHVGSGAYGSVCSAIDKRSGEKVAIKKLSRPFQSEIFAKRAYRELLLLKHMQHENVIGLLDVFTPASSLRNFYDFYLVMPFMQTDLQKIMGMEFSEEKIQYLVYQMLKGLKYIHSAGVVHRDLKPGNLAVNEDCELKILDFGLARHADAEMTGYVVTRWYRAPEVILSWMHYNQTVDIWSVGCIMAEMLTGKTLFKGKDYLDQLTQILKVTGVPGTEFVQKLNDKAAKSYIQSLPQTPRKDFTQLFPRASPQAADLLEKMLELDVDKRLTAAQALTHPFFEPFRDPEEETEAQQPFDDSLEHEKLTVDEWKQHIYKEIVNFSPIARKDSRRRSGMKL

[13] = target: Tyrosine-protein kinase ABL2 (Homo sapiens) (UniProt P42684); assay: Inhibition of ABL2 (unknown origin) assessed as remaining activity at 1 uM by Kinome scan method relative to control
Chain of Tyrosine-protein kinase ABL2 (Homo sapiens) (P42684 whole entry): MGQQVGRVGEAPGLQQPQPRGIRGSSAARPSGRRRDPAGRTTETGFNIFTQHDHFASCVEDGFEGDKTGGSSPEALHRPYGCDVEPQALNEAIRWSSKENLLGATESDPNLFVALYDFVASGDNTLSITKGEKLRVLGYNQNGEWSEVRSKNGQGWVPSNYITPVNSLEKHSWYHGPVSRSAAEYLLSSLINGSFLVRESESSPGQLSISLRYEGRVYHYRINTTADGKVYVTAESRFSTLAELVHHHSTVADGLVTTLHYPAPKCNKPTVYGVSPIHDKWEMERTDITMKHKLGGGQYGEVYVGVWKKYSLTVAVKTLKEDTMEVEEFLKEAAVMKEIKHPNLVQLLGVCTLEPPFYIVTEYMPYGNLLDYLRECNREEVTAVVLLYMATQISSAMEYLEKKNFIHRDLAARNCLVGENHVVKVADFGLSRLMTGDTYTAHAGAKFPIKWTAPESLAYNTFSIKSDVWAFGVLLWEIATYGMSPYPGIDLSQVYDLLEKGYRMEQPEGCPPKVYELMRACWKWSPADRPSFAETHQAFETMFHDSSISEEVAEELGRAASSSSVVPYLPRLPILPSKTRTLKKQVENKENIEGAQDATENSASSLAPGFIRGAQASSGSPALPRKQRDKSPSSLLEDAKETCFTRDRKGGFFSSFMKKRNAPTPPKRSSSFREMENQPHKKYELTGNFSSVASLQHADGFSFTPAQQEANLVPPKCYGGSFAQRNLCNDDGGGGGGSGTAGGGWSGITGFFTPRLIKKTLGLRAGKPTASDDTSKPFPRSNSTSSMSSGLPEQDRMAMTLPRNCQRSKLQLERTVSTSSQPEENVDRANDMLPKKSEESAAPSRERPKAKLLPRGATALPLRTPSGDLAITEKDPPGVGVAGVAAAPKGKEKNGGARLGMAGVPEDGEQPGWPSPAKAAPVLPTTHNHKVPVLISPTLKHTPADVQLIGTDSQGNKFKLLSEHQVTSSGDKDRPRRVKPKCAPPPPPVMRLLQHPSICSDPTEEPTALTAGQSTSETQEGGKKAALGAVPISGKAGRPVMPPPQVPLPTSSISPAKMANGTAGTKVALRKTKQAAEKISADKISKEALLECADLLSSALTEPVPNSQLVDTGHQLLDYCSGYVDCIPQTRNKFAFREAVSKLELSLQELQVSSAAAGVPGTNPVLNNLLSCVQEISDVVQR

[14] = target: Calcium/calmodulin-dependent protein kinase kinase 2 (Homo sapiens) (UniProt Q96RR4); assay: Inhibition of human CAMKK2 assessed as residual activity at 1 uM using RBER-GSK3 as substrate in presence of 33P-ATP by ProQinase assay relative to control
Chain of Calcium/calmodulin-dependent protein kinase kinase 2 (Homo sapiens) (Q96RR4 2-588 limits assumed): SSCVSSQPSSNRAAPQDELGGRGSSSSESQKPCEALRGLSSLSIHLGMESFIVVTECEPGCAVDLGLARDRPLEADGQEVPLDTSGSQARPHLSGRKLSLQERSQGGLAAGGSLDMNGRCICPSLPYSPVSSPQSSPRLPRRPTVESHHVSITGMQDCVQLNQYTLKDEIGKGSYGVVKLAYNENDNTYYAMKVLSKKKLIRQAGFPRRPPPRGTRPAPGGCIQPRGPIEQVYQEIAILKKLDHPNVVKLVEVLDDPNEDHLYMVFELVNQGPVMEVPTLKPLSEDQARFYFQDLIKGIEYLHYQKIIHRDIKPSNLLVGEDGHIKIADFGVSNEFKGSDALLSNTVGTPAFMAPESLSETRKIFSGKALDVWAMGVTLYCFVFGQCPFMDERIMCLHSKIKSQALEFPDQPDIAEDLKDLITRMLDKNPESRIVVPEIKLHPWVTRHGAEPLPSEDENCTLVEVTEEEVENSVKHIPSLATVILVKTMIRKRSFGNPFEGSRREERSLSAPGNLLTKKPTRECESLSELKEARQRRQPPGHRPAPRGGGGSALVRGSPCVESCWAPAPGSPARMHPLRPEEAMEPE

[15] = target: Mitogen-activated protein kinase kinase kinase 5 (Homo sapiens) (UniProt Q99683); assay: Inhibition of ASK1 (unknown origin) assessed as remaining activity at 1 uM by Kinome scan method relative to control
[16] = target: Receptor tyrosine-protein kinase erbB-4 (Homo sapiens) (UniProt Q15303); assay: Inhibition of human ERBB4 assessed as residual activity at 1 uM using polyEy as substrate in presence of 33P-ATP by ProQinase assay relative to control
[17] = target: Death-associated protein kinase 3 (Homo sapiens) (UniProt O43293); assay: Inhibition of human DAPK3 assessed as residual activity at 1 uM using RBER-GSK3 as substrate in presence of 33P-ATP by ProQinase assay relative to control
Chain of Death-associated protein kinase 3 (Homo sapiens) (O43293 whole entry, looked up): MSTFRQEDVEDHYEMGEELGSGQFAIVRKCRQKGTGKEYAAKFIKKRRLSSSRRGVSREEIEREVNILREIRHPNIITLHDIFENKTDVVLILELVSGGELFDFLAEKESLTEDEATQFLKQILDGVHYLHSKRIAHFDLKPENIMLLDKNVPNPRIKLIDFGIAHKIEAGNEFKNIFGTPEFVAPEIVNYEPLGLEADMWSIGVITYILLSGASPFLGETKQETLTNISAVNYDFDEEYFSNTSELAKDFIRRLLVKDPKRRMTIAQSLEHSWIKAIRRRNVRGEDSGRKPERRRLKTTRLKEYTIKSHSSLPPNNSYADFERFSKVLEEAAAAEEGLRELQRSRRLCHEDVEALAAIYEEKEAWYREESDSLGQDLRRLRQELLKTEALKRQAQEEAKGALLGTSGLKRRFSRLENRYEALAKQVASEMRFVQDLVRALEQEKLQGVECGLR

[18] = Anti-inflammatory activity against human derived high respond PBMC cells assessed as inhibition in stimulated IL-5 cytokine release at 10 uM incubated for 2 hrs in the presence of LPS/SEB/aCD28 by Luminex based sandwich immunoassay relative to control; type: functional

O=C1c2ccc(Nc3ccc(F)cc3F)cc2CCc2ccc(OC[C@H](O)CO)cc21 [Skepinone-L]
Activity [1]: 96% | Activity [2]: 100% | Activity [3]: 94% | Activity [4]: 89% | Activity [5]: 109% | Activity [6]: 43% | Activity [7]: 39% | Activity [8]: 128% | Activity [9]: 97% | Activity [10]: 115% | Activity [11]: 95% | Activity [12]: 85% | Activity [13]: 100% | Activity [14]: 97% | Activity [15]: 93% | Activity [16]: 106% | Activity [17]: 89% | inhibition at 10 µM [18]: 50%
